Measurements taken from US20230357222A1, “SELECTIVE SMALL MOLECULE DEGRADERS OF CEREBLON” (DANA-FARBER CANCER INSTITUTE, INC., priority 2020, published 2023).

Columns and labels:
Format in all cases: cell-based
cereblon (CRBN) [1] = target: T1, cereblon (CRBN) (Homo sapiens, UniProt Q96SW2); test: CRBN degradation in MM1.s cells, time course experiment, immunoblot; conditions: 50-nM dose
T1 construct: endogenous in cells; host or cells: MM1.s cells (also HEK293T, MOLT4, SK-N-DZ and Kelly cells for compound 1)
Method: (§1) MM1.S cells were generously provided by James Bradner (Dana-Farber Cancer Institute (DFCI), Boston, MA). MM1.S cells were cultured in Roswell Park Memorial Institute (RPMI)-1640 media containing L-glutamine, supplemented with 10% fetal bovine serum (FBS) and 1% penicillin/streptomycin. Mycoplasma testing was performed on a monthly basis and all lines were negative.
(§2) Cells were washed with ice cold phosphate-buffered saline (PBS) before being lysed with Cell Lysis Buffer (Cell Signaling Technology®) supplemented with protease and phosphatase inhibitor cocktails (Roche®) at 4° C. for 15 minutes. The cell lysate was vortexed before being centrifuged at 14,000×g for 20 min at 4° C. Protein in cell lysate was quantified by bicinchoninic acid (BCA) assay (Pierce™). Primary antibodies used in this study include CDK9 (Cell Signaling Technology®, 2316S), CKlα (Abcam®, ab206652), CRBN (Novus Biologicals®, NBP1-91810), eRF3/GSPT1 (Abcam®, ab49878), IKZF1 (Ikaros) (Cell Signaling Technology®, 5443S), IKZF3 (Aiolos) (Cell Signaling Technology®, 15103S), VHL (Cell Signaling Technology®, 68547S), and vinculin (Abcam®, ab130007). Blot quantification was performed using Image Studio 4.0 software, normalizing to loading controls.
The experimental protocol is set forth above in Example 7.

cereblon (CRBN) [2] = target: T1, cereblon (CRBN); test: CRBN degradation in MM1.s cells, 4-h dose titration, immunoblot; conditions: 4-h dose titration treatment
Method: as §1, §2

cereblon (CRBN) [3] = target: T1, cereblon (CRBN); test: Proteomic analysis (TMT LC-MS3) of protein abundance in cells; conditions: MM1.s cells, 50 nM, 6 hours
Method: MM1.s cells were treated with DMSO or 50 nM of bispecific compound 1 or 6 in biological triplicates for 6 hours and cells harvested by centrifugation. Lysis buffer (8 M Urea, 50 mM NaCl, 50 mM 4-(2hydroxyethyl)-1-piperazineethanesulfonic acid (EPPS) pH 8.5, Protease and Phosphatase inhibitors from Roche®) was added to the cell pellets and homogenized by 20 passes through a 21 gauge (1.25 in. long) needle to achieve a cell lysate with a protein concentration between 1-4 mg mL-1. A micro-BCA assay (Pierce™) was used to determine the final protein concentration in the cell lysate. 200 μg of protein for each sample were reduced and alkylated as described in Donovan et al., Elife 7:e38430 (2018).
Proteins were precipitated using methanol/chloroform. In brief, four volumes of methanol were added to the cell lysate, followed by one volume of chloroform, and finally three volumes of water. […]
Anhydrous ACN was added to each peptide sample to a final concentration of 30% v/v, and labeling was induced with the addition of TMT reagent to each sample at a ratio of 1:4 peptide:TMT label. […] The sample channels were combined at a 1:1:1:1:1:1:1:1:1:1 ratio, desalted using C18 solid phase extraction cartridges (Waters®) and analyzed by LC-MS for channel ratio comparison. Samples were then combined using the adjusted volumes determined in the channel ratio analysis and dried down in a speed vacuum. […]

T1 sequence (Q96SW2 whole entry): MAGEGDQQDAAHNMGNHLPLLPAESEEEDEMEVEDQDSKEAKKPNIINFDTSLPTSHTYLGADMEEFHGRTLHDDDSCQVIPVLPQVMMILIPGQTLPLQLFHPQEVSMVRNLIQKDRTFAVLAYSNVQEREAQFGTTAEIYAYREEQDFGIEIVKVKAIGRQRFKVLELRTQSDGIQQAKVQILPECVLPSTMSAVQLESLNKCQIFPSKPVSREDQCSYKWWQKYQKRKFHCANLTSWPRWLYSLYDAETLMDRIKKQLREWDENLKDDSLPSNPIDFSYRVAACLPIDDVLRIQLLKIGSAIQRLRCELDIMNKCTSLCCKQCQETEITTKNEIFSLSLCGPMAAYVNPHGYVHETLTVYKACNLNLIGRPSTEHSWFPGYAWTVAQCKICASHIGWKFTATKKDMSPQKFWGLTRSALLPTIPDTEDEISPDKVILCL

SMILES | earliest time at which CRBN degradation is seen after treatment (cereblon (CRBN) [1]) | CRBN degrader potency and selectivity (in words) (cereblon (CRBN) [2]) | concentration at which virtually complete degradation of CRBN is seen (cereblon (CRBN) [2]) | proteins significantly degraded by proteomic analysis (selectivity) (cereblon (CRBN) [3])
Cc1ncsc1-c1ccc(CNC(=O)[C@@H]2C[C@@H](O)CN2C(=O)[C@@H](NC(=O)CCCCCCCCCCOc2cccc3c2C(=O)N(C2CCC(=O)NC2=O)C3=O)C(C)(C)C)cc1 (stereo partly drawn) [Compound 1, (2S,4R)-1-((2S)-2-(11-((2-(2,6-dioxopiperidin-3-yl)-1,3-dioxoisoindolin-4-yl)oxy)undecanamido)-3,3-dimethylbutanoyl)-4-hydroxy-N-(4-(4-methylthiazol-5-yl)benzyl)pyrrolidine-2-carboxamide] | 1 h | highly potent and selective degraders of CRBN | around 50 nM | only CRBN was significantly degraded
Cc1ncsc1-c1ccc([C@H](C)NC(=O)[C@@H]2C[C@@H](O)CN2C(=O)[C@@H](NC(=O)CCCCCCCCCCOc2cccc3c2C(=O)N(C2CCC(=O)NC2=O)C3=O)C(C)(C)C)cc1 (stereo partly drawn) [Compound 6, (2S,4R)-1-((2S)-2-(11-((2-(2,6-Dioxopiperidin-3-Yl)-1,3-Dioxoisoindolin-4-Yl)Oxy)Undecanamido)-3,3-Dimethylbutanoyl)-4-Hydroxy-N-((S)-1-(4-(4-Methylthiazol-5-Yl)Phenyl)Ethyl)Pyrrolidine-2-Carboxamide] | 1 h | highly potent and selective degraders of CRBN | around 50 nM | only CRBN was significantly degraded
